In series [1] the test system is Human U87MG Glioblastoma. The series is described as follows: In vivo evaluation of Compounds 3 and 45, alone and in combination with anti-HGF mAb HuL2G7, in human U87MG glioblastoma implanted nude mice (tumor growth delay method). The settings on record: for induction of regressions: monotherapy p.o. qd x 14; for tumor growth delays / tumor growth delays (% of median TTE of control): monotherapy p.o. qd x 14 (Table 4: Cmpd 45 136.05 mg/kg, Cmpd 3 200 mg/kg). As for the experimental part:
B. In Vivo Evaluation of Compounds 3 and 45, Alone and in Combination with Anti-HGF mAb HuL2G7, in Human U87MG Glioblastoma Implanted Nude Mice
Female athymic nude mice (Harlan), 9 weeks of age, were fed ad libitum water (reverse osmosis, 1 ppm Cl2) and an irradiated standard rodent diet (NIH31 Modified and Irradiated) consisting of: 18% protein, 5% fat, and 5% fiber. Mice were housed on irradiated Enrich-O'Cobs™ laboratory animal bedding in static microisolators on a 12-hour light cycle at 21-22° C. (70-72° F.) and 40-60% humidity.
The human U87MG glioblastoma utilized in the present study was maintained in serial s.c. transplantation in nude mice. Mice were implanted subcutaneously in the flank with a 1 mm^3 fragment of U87MG glioblastoma. Tumors were monitored as the neoplasms reached the desired size, approximately 190 mm^3. At 12 days, when the tumors attained a size between 172-256 mm^3 in calculated tumor volume, the animals were pair-matched into various treatment groups (the mean tumor volume in each group was 190-198 mm^3). Estimated tumor volume was calculated using the formula:
(§1) where w=width and l=length in mm of a U87MG glioblastoma.
Compounds 3 and 45 were prepared by as described above. Compounds 3 and 45 were then prepared for administration as suspensions in 30% Captisol/100 mM citrate at pH 3.0. HuL2G7 was then provided as a 20.7 mg/ml stock solution in normal saline. The stock solution was diluted with normal saline to provide the formulation for injection.
The concentration of each compound was such that the desired dose was delivered in a volume of 5 μl per gram body weight. Dosing solutions of Compounds 3 and 45 were prepared fresh weekly and stored under refrigeration. Dosing solutions of HuL2G7 were prepared fresh prior to each treatment and were stored under refrigeration along with the stock solution.
On Day 1, animals were pairmatched by tumor size into 8 groups of 10 mice each. […] HuL2G7 was given i.v. at 10 mg/kg qwk×2. Treatment with all agents, either alone or in combination, was initiated on Day 1. Mice treated with monotherapy received the vehicle used for the other agent. There was a vehicle control group which received the Captisol/citrate, pH 3.0 vehicle p.o. qd×14 as well as saline i.v. qwk×2. Treatment groups were compared for statistical significance to the vehicle control. Groups that received the combinations were compared for statistical significance to the monotherapy groups that received the two agents used in combination. The experiment was terminated on Day 43.
(§2) The tumor growth delay (TGD) method was used in this study; treatment-effected median increases in time to endpoint (TTE) of various treatment groups were compared to untreated and vehicle controls. In the TGD method, each animal was euthanized as a cancer death when its U87MG glioblastoma reached a size of 2000 mm^3. TTE values were determined for all groups based on the calculated day reaching endpoint as given by the formula: […]
(§3) where TTE is expressed in days, endpoint volume is in mm^3, b is the intercept, and m is the slope of the line obtained by linear regression of a log-transformed tumor growth data set. The data set is comprised of the first observation that exceeded the study endpoint volume and the three consecutive observations that immediately preceded the attainment of the endpoint volume. The calculated TTE is usually less than the day on which an animal is euthanized for tumor size. […] Animals classified as treatment related deaths (TR) or non-treatment-related metastatic deaths (NTRm) are assigned a TTE value equal to the day of death. Animals classified as non-treatment-related deaths (NTRu or NTRa) are excluded from TTE calculations.
Treatment efficacy was determined from tumor growth delay (TGD), which is defined as the increase in the median TTE for a treatment group compared to the control group:
expressed in days, or as a percentage of the median TTE of the control group: […]

Series [2] relates to Human U87MG Glioblastoma. Description: In vivo evaluation of Compound 45, alone and in combination with anti-HGF mAb HuL2G7, in human U87MG glioblastoma implanted nude mice (tumor growth delay method). As for the experimental part:
A. In Vivo Evaluation of Compound 45, Alone and in Combination with Anti-HGF mAb HuL2G7, in Human U87MG Glioblastoma Implanted Nude Mice
Female athymic nude mice (Harlan), 10 weeks of age, were fed ad libitum water (reverse osmosis, 1 ppm […]) and an irradiated standard rodent diet (NIH31 Modified and Irradiated) consisting of: 18% protein, 5% fat, and 5% fiber. Mice were housed on irradiated Enrich-o′-Cobs™ laboratory animal bedding in static microisolators on a 12-hour light cycle at 21-22° C. (70-72° F.) and 40-60% humidity.
The human U87MG glioblastoma was maintained in serial s.c. transplantation in nude mice. Mice were implanted subcutaneously in the flank with a 1 mm^3 fragment of U87MG glioblastoma. Tumors were monitored twice weekly then subsequently daily as the neoplasms reached the desired size, approximately 190 mm^3. At 13 days, when the tumors attained a size between 126-288 mm^3 in calculated tumor volume, the animals were pair-matched into various treatment groups (the mean tumor volume in each group was 184-192 mm^3). Estimated tumor volume was calculated using the formula:
as §1
Compound 45 was produced as described above. Compound 45 was then prepared for administration in 30% Captisol/25 mM citrate at pH 3.0. HuL2G7 was then provided as a 19.0 mg/ml stock solution in normal saline. The stock solution was diluted with normal saline to provide the formulation for injection.
The concentration of each compound was such that the desired dose was delivered in a volume of 5 μl per gram body weight. Dosing solutions of Compound 45 were prepared fresh weekly and stored at room temperature. Dosing solutions of HuL2G7 were prepared fresh prior to each treatment and were stored under refrigeration along with the stock solution.
On Day 1, animals were pairmatched by tumor size into 16 groups of 10 mice each. Compound 45 was given p.o. at 10.8, 32.4 and 108 mg/kg qd×14. HuL2G7 was given i.v. at 1, 3 and 10 mg/kg qwk×2. Treatment with both agents either alone or in combination was initiated on Day 1. Mice treated with monotherapy received the vehicle used for the other agent. There was a vehicle control group which received the Captisol/citrate, pH 3.0 vehicle p.o. qd×14 as well as saline i.v. qwk×2. Treatment groups were compared for statistical significance to the vehicle control. Groups that received the combination were compared for statistical significance to the monotherapy groups that received the same dose of the two agents used in combination. The experiment was terminated on Day 44.
as §2
as §3, with “calculations. Treatment efficacy was determined from tumor growth delay (TGD), which is defined as the increase in the median TTE for a treatment group compared to the control group: […]” for “calculations.”

Where [3] appears, read: monotherapy, text summary over doses (Compound 45 daily for 14 days; HuL2G7 i.v. qwk x 2).
[4] abbreviates: monotherapy: Compound 45 10.8 mg/kg p.o. qd x 14 (HuL2G7 0).
Where [5] appears, read: monotherapy: Compound 45 32.4 mg/kg p.o. qd x 14 (HuL2G7 0).
Where [6] appears, read: monotherapy: Compound 45 108 mg/kg p.o. qd x 14 (HuL2G7 0).

By melting point is commonly meant the temperature, or range, at which the solid turns liquid. Regarding `Cn1cc(-c2ccc3nnn(Cc4ccc5nc(NC(=O)C6CC6)cn5n4)c3c2)cn1` [Compound 13, N-(6-((6-(1-methyl-1H-pyrazol-4-yl)-1H-benzo[d][1,2,3]triazol-1-yl)methyl)imidazo[1,2-b]pyridazin-2-yl)cyclopropanecarboxamide], the melting point fell in the range of 250.2 to 251.6 °C.

For `O=C(Nc1cn2nc(Sc3nnc4ccccn34)ccc2n1)C1CC1` [Compound 3, N-(6-([1,2,4]triazolo[4,3-a]pyridin-3-ylthio)imidazo[1,2-b]pyridazin-2-yl)cyclopropanecarboxamide], in series [1], the induction of regressions entry was “Neither of these agents was able to induce regressions”, the tumor growth delays is given as 3 days and the “tumor growth delays (% of median TTE of control)” value is recorded as “ca. 23%”.

Regarding `Cn1cc(-c2ccc3nnc(C(F)(F)c4ccc5nc(NC(=O)C6CC6)cn5n4)n3c2)cn1` [Compound 45, N-(6-(difluoro(6-(1-methyl-1H-pyrazol-4-yl)-[1,2,4]triazolo[4,3-a]pyridin-3-yl)methyl)imidazo[1,2-b]pyridazin-2-yl)cyclopropanecarboxamide], the induction of regressions entry in series [2] (monotherapy) is on record as “Neither agent was able to induce regressions”; in series [1], “Neither of these agents was able to induce regressions”. The tumor growth delays in series [2] (setting [3]) is 3 to 4 days; in series [1], 3 days. For the same molecule, the entries for the “tumor growth delays (% of median TTE of control)” value in series [2] (setting [3]) and in series [1] were “ca. 30%” and “ca. 23%”, respectively. Further, the “Regressions (CR/PR per 10 mice)” value in series [2] (setting [4]), in series [2] (setting [5]) and in series [2] (setting [6]) was 0/10 in each case. In addition, the “Tumor Growth Delay (TGD)” value in series [2] (setting [4]) was determined as 0 days; in series [2] (setting [5]), 3.9 days; in series [2] (setting [6]), 3.1 days.

The record behind these values is patent publication US20130315895A1, “COMBINATION OF A cMET INHIBITOR AND AN ANTIBODY TO HGF AND/OR cMET” (priority 2010, published 2013).
